Experimental data: paper PMC10385664, “Projection of Target Drug Particle Size in Oral Formulations Using the Refined Developability Classification System (rDCS)” (Pharmaceutics, 2023)
Several values for one entry are separate records, joined by “and”; a condition that tells them apart may be missing. Identical values can stand only once.

Experiments:
Caco-2 cells = test: Caco-2 permeability assay (pH 6.5/7.4 gradient, ± elacridar)
Procedure: In vitro permeability studies were performed at Cyprotex Discovery Ltd. (Macclesfield, UK) using a high-throughput Caco-2 permeability assay. Permeability at 37 °C was assessed from the apical to basolateral side (A⟹B) and in opposite direction (B⟹A) applying a pH gradient with pH 6.5 in the apical and pH 7.4 in the basolateral compartment (Hanks Balanced Salt Solution, HBSS). After an incubation of 120 min, samples were diluted for analysis via liquid chromatography coupled with tandem mass spectrometry (LC-MS/MS). […] Experiments were performed in absence and presence of the P-glycoprotein (P-gp) inhibitor elacridar (10 µM) to study transporter-mediated efflux effects. The dosing solutions contained the API (10 µM) in HBSS, and DMSO in a concentration of ≤1% v/v. Lucifer yellow (100 µM) was included as fluorescent integrity marker. Further experimental details are provided in Supplementary Materials.
The apparent permeability coefficients (Papp) were calculated according to Equation (27):(27) Papp=dQ/dt/C0·A where dQ/dt is the permeation rate of the API across the cell monolayer, C0 is the starting concentration of the API in the dosing solution and A is the surface area of the cell monolayer. The efflux ratios (ERs) were calculated from the B⟹A and A⟹B Papp values to estimate whether P-gp mediated efflux was involved in the transport of the APIs. The mass balance (% recovery) was calculated from the sum of the API recovered from the acceptor and donor compartments at the end of the experiment, divided by the initial donor amount.
Table S6. Gradient of the UPLC method for analysis of lemborexant.
Table S7. Gradient of the UPLC method for analysis of istradefylline.
S.2.5. rDCS Standard Investigations: Caco‐2 permeability studies
Caco‐2 cells were obtained from the American Type Culture Collection (ATCC, Manassas, VA, USA) and used between passage numbers 40 to 60. The cells were seeded onto Millipore Multiscreen Transwell plates at a density of 1 x 10^5 cells/cm2 and cultured in Dulbeccoʹs Modified Eagleʹs Medium (DMEM). The medium was changed every two or three days. Ce l l culture was carried out at 37 °C in an atmosphere of 5 % CO2 with a relative humidity of 95 %. The permeability assay was performed on day 20.
In vitro permeability was assessed wit h a high‐throughput Caco‐2 permeability assay. The assay was prepared by rinsing apical and basolateral monolayer surfaces twice with Hanks Balanced Salt Solution (HBSS) at the desired pH and 37 °C. Subsequently, cells in the apical and basolateral compartments were incubated with HBSS at the desired pH for 40 min. A pH gradient with pH 6.5 in the apical compartment and pH 7.4 in the basolateral compartment was applied. Dosing solutions containing the API (10 μ M) were prepared by diluting a concentrated API solution in DMS O with HBSS. The final DMSO concentration was ≤ 1% v/v. Lucifer yellow (100 μM) was included in the dosing solution as fluorescent integrity marker. For the assessment of the permeability from the apical to basolateral side (A⟹B), HBSS in the apical compartment was replaced with the dosing solution. The apical inserts were placed into a companion plat e containing fresh buffer with 1% v/ v DMSO. For the assessment of the permeability from the basolateral to […]
apical side (B⟹A), HBSS was removed from the companion plate and replaced with the solution of drug in HBSS. Fresh HBSS was added to the apical insert, which was then placed into the companion plate.
Experiments were performed in absence and presence of the P‐glycoprotein (P‐gp) inhibitor elacridar (10 μM) to study transporter‐mediated efflux effects. In those experiments, elacridar was included in both compartments during the equilibration time and assay. The starting concentration (C0) was confirmed by sampling from the dosing solution immediately before dosing into the cell pl ates. After incubation of 120 minutes, the apical inserts and companion plates were separated for sampling from both compartments.

[1] = Disk intrinsic dissolution rate in FaSSIF V1 (µDISS Profiler); format: physicochemical; details: FaSSIF V1, 37 °C, 100 rpm
Procedure: The experimental design was adapted from a standard experimental protocol published previously. Disks (n = 3) with a surface area of 0.0707 cm^2 were prepared by compressing the APIs into disk dies. For this, 5 to 10 mg of the API was compressed for 1 min at 50 bar using a Mini-IDR Tablet Compression System (Heath Scientific Co. Ltd., Milton Keynes, UK). Loose powder on the disk surface or die was removed with compressed air. […] With the disk surface facing upwards, the dies were placed into round-shaped magnetic stirrers and transferred into 20 mL assay vials. The vials were placed in a heating block and pre-heated FaSSIF V1 (10 mL) was added to each vial to start the dissolution experiments. The disks were rotated at 100 rpm and concentrations were measured in situ with UV-spectroscopy using fiber optic dip probes. Experiments were performed in triplicate.
S.2.6. rDCS Customized Investigations: Intrinsic dissolution rate
The concentration‐time curves for IDR determination were recorded with in situ UV‐spectroscopy using fiber optic dip probes. […] The buffer was stirred at 100 rpm and spectra were recorded approximately 1 minut e after addition of the stock solution. […]
Second derivatives of the UV spectra were used to establish the calibration curves. Multiple wavelength ranges were evaluated, and calibration curves were accepted for further investigation when linear […]

Row | SMILES | permeability assessment (Caco-2 cells; against antipyrine, propranolol and atenolol as comparators) | IDR FaSSIF V1 (disk dissolution method) [1] | permeability assessment (Caco-2 cells; Caco-2)
1 | Cc1ncc(OC[C@@]2(c3cccc(F)c3)C[C@H]2C(=O)Nc2ccc(F)cn2)c(C)n1 [Lemborexant, lemborexant] | highly permeable | 1.99 ± 0.09 µg/min/cm^2 and 1.99 ± 0.09 ^2 µg/min/cm^2 | –
2 | C[C@@H](c1ncncc1F)[C@](O)(Cn1cncn1)c1ccc(F)cc1F [Voriconazole, voriconazole] | – | 84.8 ± 1.4 µg/min/cm^2 and 84.8 ± 1.4 ^2 µg/min/cm^2 | high permeability
